The supplement of paper PMC10307832

Key:
Test in all cases: relative viability (nuclei count vs DMSO), 5 days (fraction); higher = more cells survive
IPA-3 + AZD7762 = compound: C1=CC=C2C(=C1)C=CC(=C2SSC3=C(C=CC4=CC=CC=C43)O)O [IPA-3] + NC(=O)Nc1cc(-c2cccc(F)c2)sc1C(=O)N[C@H]1CCCNC1 [AZD7762] (partner 0.2 µM)
How it was run: (§1)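 Lung cancer cell lines were pin-tool dosed in 1536-well plates on the day after seeding, with either a lone drug or a fixed anchor-drug dose plus five library-drug doses (not always all listed) in √10 steps. Nuclei were counted on 4× images after 5 days. Relative viability is the ratio of treated-well to vehicle-well nuclei counts, with each value a median of duplicate plates.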

IPA-3 + Vorinostat = compound: C1=CC=C2C(=C1)C=CC(=C2SSC3=C(C=CC4=CC=CC=C43)O)O [IPA-3] + O=C(CCCCCCC(=O)Nc1ccccc1)NO [Vorinostat] (partner 1 µM)
How it was run: as §1

Doramapimod + Bortezomib = compound: Cc1ccc(-n2nc(C(C)(C)C)cc2NC(=O)Nc2ccc(OCCN3CCOCC3)c3ccccc23)cc1 [Doramapimod] + CC(C)C[C@H](NC(=O)[C@H](Cc1ccccc1)NC(=O)c1cnccn1)B(O)O [Bortezomib] (partner 0.002 µM)
How it was run: as §1

Doramapimod + Alpelisib = compound: Cc1ccc(-n2nc(C(C)(C)C)cc2NC(=O)Nc2ccc(OCCN3CCOCC3)c3ccccc23)cc1 [Doramapimod] + Cc1nc(NC(=O)N2CCC[C@H]2C(N)=O)sc1-c1ccnc(C(C)(C)C(F)(F)F)c1 [Alpelisib] (partner 2 µM)
How it was run: as §1

Row | Cell Line | relative viability (IPA-3 + AZD7762; first compound 0.2 µM) | relative viability (IPA-3 + AZD7762; first compound 0.6325 µM) | relative viability (IPA-3 + AZD7762; first compound 2 µM) | relative viability (IPA-3 + AZD7762; first compound 6.325 µM) | relative viability (IPA-3 + AZD7762; first compound 20 µM) | relative viability (IPA-3 + Vorinostat; first compound 0.2 µM) | relative viability (IPA-3 + Vorinostat; first compound 0.6325 µM) | relative viability (IPA-3 + Vorinostat; first compound 2 µM) | relative viability (IPA-3 + Vorinostat; first compound 6.325 µM) | relative viability (IPA-3 + Vorinostat; first compound 20 µM) | relative viability (Doramapimod + Bortezomib; first compound 0.02 µM) | relative viability (Doramapimod + Bortezomib; first compound 0.06325 µM) | relative viability (Doramapimod + Bortezomib; first compound 0.2 µM) | relative viability (Doramapimod + Bortezomib; first compound 0.6325 µM) | relative viability (Doramapimod + Bortezomib; first compound 2 µM) | relative viability (Doramapimod + Alpelisib; first compound 0.02 µM) | relative viability (Doramapimod + Alpelisib; first compound 0.06325 µM) | relative viability (Doramapimod + Alpelisib; first compound 0.2 µM) | relative viability (Doramapimod + Alpelisib; first compound 0.6325 µM) | relative viability (Doramapimod + Alpelisib; first compound 2 µM)
1 | NCI-H1355 | 0.807 | 0.764 | 0.73 | 0.827 | 0.719 | 0.69 | 0.655 | 0.595 | 0.617 | 0.657 | 1.23 | 1.29 | 1.29 | 1.19 | 1.16 | 0.739 | 0.793 | 0.754 | 0.868 | 0.732
2 | NCI-H1437 | 1.2 | 1.08 | 1.18 | 1.06 | 1.19 | 0.863 | 0.644 | 0.691 | 0.783 | 0.826 | 0.586 | 0.643 | 0.551 | 0.464 | 0.495 | 0.904 | 1.01 | 0.915 | 0.926 | 0.965
3 | NCI-H1651 | 0.573 | 0.473 | 0.411 | 0.554 | 0.499 | 0.608 | 0.612 | 0.61 | 0.645 | 0.592 | 0.922 | 0.996 | 0.931 | 0.987 | 0.907 | 0.788 | 0.987 | 0.876 | 0.962 | 0.859
4 | NCI-H1666 | 0.866 | 0.815 | 0.788 | 0.962 | 0.905 | 1.07 | 1.06 | 1.07 | 1.04 | 1.03 | 0.83 | 0.784 | 0.826 | 0.842 | 0.725 | 0.834 | 1.01 | 0.882 | 1.03 | 1.01
5 | NCI-H1734 | 0.637 | 0.508 | 0.624 | 0.571 | 0.496 | 0.922 | 0.761 | 0.799 | 0.726 | 0.638 | 0.845 | 0.859 | 0.766 | 0.966 | 0.724 | 0.603 | 0.567 | 0.559 | 0.629 | 0.533
6 | NCI-H1755 | 0.55 | 0.448 | 0.434 | 0.486 | 0.476 | 0.863 | 0.61 | 0.694 | 0.63 | 0.704 | 1.03 | 1 | 0.793 | 0.897 | 0.831 | 0.907 | 0.884 | 0.989 | 0.98 | 0.922
7 | NCI-H1915 | 0.77 | 0.713 | 0.693 | 0.68 | 0.694 | 0.581 | 0.497 | 0.505 | 0.492 | 0.533 | 0.978 | 1.09 | 1.04 | 1.02 | 0.936 | 1.04 | 1.1 | 1.12 | 1.11 | 1.08
8 | NCI-H1975 | 0.825 | 0.731 | 0.778 | 0.868 | 0.775 | 0.791 | 0.672 | 0.712 | 0.83 | 0.831 | 0.321 | 0.324 | 0.266 | 0.363 | 0.327 | 0.756 | 0.674 | 0.69 | 0.77 | 0.676
